Measured values taken from EP2803363A1, “The antigen CYBA-72Y/B15 and uses thereof” (Universitätsmedizin der Johannes Gutenberg-Universität Mainz, priority 2013, dated 2014).
Values belong to the molecule of their own block, whether it stands above or below them. Ends that are not written are not given here.

Key:
[1] = test system: miniMLLC 2E8; experiment: 20h-IFN-gamma ELISpot assay: recognition of synthetic CYBA peptides loaded on HLA-B*15:01-transfected 293T cells; type: cell-based; settings: for recognition by T cells using an IFN-gamma-ELISpot assay: 293T cells transfected with HLA-B*15:01, loaded with peptide at different concentrations, 2E8 effector cells, Figure 3A; for peptide recognition by T lymphocytes against CYBA-72Y/B15: summary statement for all T lymphocytes (miniMLLCs), assay not given
Description: The present invention will now be further described in the following examples with reference to the accompanying figures and sequences, nevertheless, without being limited thereto. For the purposes of the present invention, all references as cited herein are incorporated by reference in their entireties. The Figures and Sequences show: • Figure 1: HLA restriction of miniMLLC 2E8. A) MZ529-EBV-B-cells (5x10^4 cells/well) were co-incubated in the presence of HLA-specific antibodies at concentrations mediating complete blocking of control-T lymphocytes with corresponding HLA restriction, with the miniMLLC 2E8 (1x10^4 cells/TU) in duplicate reactions in a 20h-IFN-gamma ELISpot assay. B) COS-7-cells (2x10^4 cells/well) were transfected with the HLA alleles of patient MZ529-AML and Buffy Coat donor 730 and tested in duplicate reactions for recognition by 2E8 (2x10^4 cells/well) in a 20h-IFN-gamma ELISpot assay. • Figure 2: Fragment analysis of the cDNA clone #428.67.4 for the identification of the peptide-coding region. 3'-fragments with a length difference of one codon (i.e. one amino acid) were generated from the cDNA clone #428.67.4 encoding the full-length CYBA-72Y, and were tested after co-transfection with HLA-B*15:01 into 293T cells (2x10^4 cells/well) in a 20h-IFN-gamma ELISpot assay for recognition by 2E8 (1.5x10^4 cells/well). MZ529-EBV-B cells (5x10^4 cells/well) served as positive control target. • Figure 3: Peptide recognition by the miniMLLC 2E8. (A) For a 20h-IFN-gamma ELISpot assay, 293T cells (2x10^4 cells/well) were transfected with HLA-B*15:01, were loaded with the indicated synthetic CYBA peptides at different concentrations, and were tested in duplicate reactions for recognition by 2E8 (2x10^4 cells/well). (B) For a […]-^51Cr-release assay, HLA-B*15:01-expressing L721.221-cells (2x10^4 cells/well) were loaded with the indicated synthetic CYBA peptides at different concentrations, and co-incubated in duplicate experiments with 2E8 (2x10^4 cells/well). • Figure 4: Recognition of non-malignant hematopoietic cells from HLA-B*15:01-positive BC donors by the CYBA-72Y/B15-specific miniMLLC 2E8. (A) From PBMCs of HLA-B*15:01-positive BC donors, who -with the exception of BC848 - carried at least one CYBA-242T allele (coding for CYBA-72Y), monocytes were purified using plastic adherence and differentiated to mature dendritic cells (mDCs) using cytokines. In duplicates 5x10^4 (BC087, BC848, BC967) or 3x10^4 (BC241, BC048) cells per well were tested for recognition by 2E8 (1.5x10^4 cells/well) in 20h-IFN-gamma ELISpot assays. […]

[2] = test system: miniMLLC 2E8; experiment: 48h-51Cr-release assay: synthetic CYBA peptides loaded on HLA-B*15:01-expressing L721.221-cells; type: cell-based; settings: HLA-B*15:01-expressing L721.221-cells loaded with peptide at different concentrations; 2E8 effector cells; Figure 3B
Description: The present invention will now be further described in the following examples with reference to the accompanying figures and sequences, nevertheless, without being limited thereto. For the purposes of the present invention, all references as cited herein are incorporated by reference in their entireties. The Figures and Sequences show: • Figure 1: HLA restriction of miniMLLC 2E8. A) MZ529-EBV-B-cells (5x10^4 cells/well) were co-incubated in the presence of HLA-specific antibodies at concentrations mediating complete blocking of control-T lymphocytes with corresponding HLA restriction, with the miniMLLC 2E8 (1x10^4 cells/TU) in duplicate reactions in a 20h-IFN-gamma ELISpot assay. B) COS-7-cells (2x10^4 cells/well) were transfected with the HLA alleles of patient MZ529-AML and Buffy Coat donor 730 and tested in duplicate reactions for recognition by 2E8 (2x10^4 cells/well) in a 20h-IFN-gamma ELISpot assay. • Figure 2: Fragment analysis of the cDNA clone #428.67.4 for the identification of the peptide-coding region. 3'-fragments with a length difference of one codon (i.e. one amino acid) were generated from the cDNA clone #428.67.4 encoding the full-length CYBA-72Y, and were tested after co-transfection with HLA-B*15:01 into 293T cells (2x10^4 cells/well) in a 20h-IFN-gamma ELISpot assay for recognition by 2E8 (1.5x10^4 cells/well). […]

[3] = target: T1, CYBA-72Y (cytochrome b-245 alpha-polypeptide, p22phox; SNP rs4673, tyrosine at position 72) peptide on … (human); experiment: cytokine release
T1 peptide: GQKYMTAVV

[4] = target: T2, CYBA-72Y peptide on HLA-B*15:01 (human); experiment: cytokine release
T2 peptide: WGQKYMTAVV

Molecule: WGQKYMTAVV [WGQKYMTAVV]
recognition by T cells using an IFN-gamma-ELISpot assay [1]: recognized | recognition by T cells by means of a 51Cr-(chromium) release test [2]: recognized

Molecule: GQKHMTAVV [homologous peptide from CYBA-72H, reference compound]
peptide recognition by T lymphocytes against CYBA-72Y/B15 [1]: did not lead to any reactivity

Molecule: GQKYMTAVV [GQKYMTAVV]
recognition by T cells using an IFN-gamma-ELISpot assay [1]: recognized at lower concentrations | peptide recognition by T lymphocytes against CYBA-72Y/B15 [1]: recognized by all T lymphocytes at the lowest concentration | recognition by T cells by means of a 51Cr-(chromium) release test [2]: recognized at lower concentrations

binding result [3]: recognises | binding result [4]: recognises
B1: T-cell receptor cloned from miniMLLC 2D10 (TCR)
alpha TRAV10*01 TRAJ42*01 CDR3: CVVSRIYGGSQGNLIF
beta TRBV20-1*02 TRBJ2-3*01 CDR3: CSARGFSGVTDTQYF
